In PubChem BioAssay AID2060485 (Molecular Pharmacology Branch, DTP, NCI, 2025):

Test system: A375 multi-cell spheroids with HUVEC/MSC, viability
Test: Anticancer human tumor A375 cell line growth inhibition [GQUAD];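 further: spheroids exposed to compounds for seven days before readout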
Details: for IC50: curve of first compound; for viability, T/C: stronger effect = lower value
How it was run: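 Tumor cells were grown as complex spheroids with HUVEC endothelial cells and mesenchymal stem cells as stroma. G-quadruplex stabilizers were combined with targeted agents over half-log dilutions from near the clinical Cmax, or from 10 microM.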

[1] = second compound 0.0316 µM, first compound 0.0316 µM
[2] = second compound 0.0316 µM, first compound 0.1 µM
[3] = second compound 0.0316 µM, first compound 0.316 µM
[4] = second compound 0.0316 µM, first compound 1 µM
[5] = second compound 0.0316 µM, first compound 3.16 µM
[6] = second compound 0.0316 µM, first compound 10 µM
[7] = second compound 0.1 µM, first compound 0.0316 µM
[8] = second compound 0.1 µM, first compound 0.1 µM
[9] = second compound 0.1 µM, first compound 0.316 µM
[10] = second compound 0.1 µM, first compound 1 µM
[11] = second compound 0.1 µM, first compound 3.16 µM
[12] = second compound 0.1 µM, first compound 10 µM
[13] = second compound 0.316 µM, first compound 0.0316 µM
[14] = second compound 0.316 µM, first compound 0.1 µM
[15] = second compound 0.316 µM, first compound 0.316 µM
[16] = second compound 0.316 µM, first compound 1 µM
[17] = second compound 0.316 µM, first compound 3.16 µM
[18] = second compound 0.316 µM, first compound 10 µM
[19] = second compound 1 µM, first compound 0.0316 µM
[20] = second compound 1 µM, first compound 0.1 µM
[21] = second compound 1 µM, first compound 0.316 µM
[22] = second compound 1 µM, first compound 1 µM
[23] = second compound 1 µM, first compound 3.16 µM
[24] = second compound 1 µM, first compound 10 µM
[25] = second compound 3.16 µM, first compound 0.0316 µM
[26] = second compound 3.16 µM, first compound 0.1 µM
[27] = second compound 3.16 µM, first compound 0.316 µM
[28] = second compound 3.16 µM, first compound 1 µM
[29] = second compound 3.16 µM, first compound 3.16 µM
[30] = second compound 3.16 µM, first compound 10 µM
[31] = second compound 10 µM, first compound 0.0316 µM
[32] = second compound 10 µM, first compound 0.1 µM
[33] = second compound 10 µM, first compound 0.316 µM
[34] = second compound 10 µM, first compound 1 µM
[35] = second compound 10 µM, first compound 3.16 µM
[36] = second compound 10 µM, first compound 10 µM

For `O=C(NO)c1cnc(N2CCN(S(=O)(=O)c3ccc4ccccc4c3)CC2)nc1` + Cc1[nH]c2ccc(F)cc2c1-c1nc2c3cccnc3c3ncccc3c2[nH]1, the IC50 (second compound 0.0316 µM) was 203 nM, the IC50 (second compound 0.1 µM) was 445 nM and the IC50 (second compound 0.316 µM) was 507 nM. It also gave an IC50 (second compound 1 µM) of 447 nM, an IC50 (second compound 3.16 µM) of 202 nM and an IC50 (second compound 10 µM) of 251 nM. It also gave a viability, T/C [1] of 104%, a viability, T/C [2] of 113% and a viability, T/C [3] of 13.4%. For the same compound, the viability, T/C [4] was 0.27%, the viability, T/C [5] was 0.25% and the viability, T/C [6] was 0.27%. It also gave a viability, T/C [7] of 105%, a viability, T/C [8] of 119% and a viability, T/C [9] of 71%. For the same compound, the viability, T/C [10] was 0.27%, the viability, T/C [11] was 0.8% and the viability, T/C [12] was 0.26%. For the same compound, the viability, T/C [13] was 106%, the viability, T/C [14] was 112% and the viability, T/C [15] was 84.5%. It also gave a viability, T/C [16] of 0.24%, a viability, T/C [17] of 0.19% and a viability, T/C [18] of 0.23%. The viability, T/C [19] was 109%, the viability, T/C [20] was 106% and the viability, T/C [21] was 71.3%. It also gave a viability, T/C [22] of 0.21%, a viability, T/C [23] of 0.15% and a viability, T/C [24] of 0.23%. It also gave a viability, T/C [25] of 96.3%, a viability, T/C [26] of 89.5% and a viability, T/C [27] of 24.7%. The viability, T/C [28] was 0.19%, the viability, T/C [29] was 0.16% and the viability, T/C [30] was 0.22%. The viability, T/C [31] was 111%, the viability, T/C [32] was 105% and the viability, T/C [33] was 36.2%. It also gave a viability, T/C [34] of 0.21%, a viability, T/C [35] of 0.21% and a viability, T/C [36] of 0.25%.
With `C#Cc1c(F)ccc2cc(O)cc(-c3ncc4c(N5CC6CCC(C5)N6)nc(OCC56CCCN5CC(F)C6)nc4c3F)c12` (stereo unspecified) + CN(C)c1ccc(Nc2c3ccc(NC(=O)CCN4CCCC4)cc3nc3cc(NC(=O)CCN4CCCC4)ccc23)cc1 the IC50 (second compound 0.0316 µM) was over 10000 nM, the IC50 (second compound 0.1 µM) was over 10000 nM and the IC50 (second compound 0.316 µM) was over 10000 nM. The IC50 (second compound 1 µM) was over 10000 nM, the IC50 (second compound 3.16 µM) was over 10000 nM and the IC50 (second compound 10 µM) was over 10000 nM. For the same compound, the viability, T/C [1] was 111%, the viability, T/C [2] was 98.5% and the viability, T/C [3] was 101%. The viability, T/C [4] was 108%, the viability, T/C [5] was 106% and the viability, T/C [6] was 112%. For the same compound, the viability, T/C [7] was 104%, the viability, T/C [8] was 103% and the viability, T/C [9] was 105%. The viability, T/C [10] was 108%, the viability, T/C [11] was 107% and the viability, T/C [12] was 107%. For the same compound, the viability, T/C [13] was 99.5%, the viability, T/C [14] was 98.4% and the viability, T/C [15] was 99.3%. For the same compound, the viability, T/C [16] was 109%, the viability, T/C [17] was 102% and the viability, T/C [18] was 98.6%. The viability, T/C [19] was 106%, the viability, T/C [20] was 98% and the viability, T/C [21] was 99.4%. The viability, T/C [22] was 109%, the viability, T/C [23] was 107% and the viability, T/C [24] was 98.1%. It also gave a viability, T/C [25] of 103%, a viability, T/C [26] of 98.7% and a viability, T/C [27] of 104%. For the same compound, the viability, T/C [28] was 97.2%, the viability, T/C [29] was 102% and the viability, T/C [30] was 103%. For the same compound, the viability, T/C [31] was 96.6%, the viability, T/C [32] was 102% and the viability, T/C [33] was 96.2%. The viability, T/C [34] was 96.3%, the viability, T/C [35] was 102% and the viability, T/C [36] was 102%.
With `CCc1c2c(nc3ccc(O)cc13)-c1cc3c(c(=O)n1C2)COC(=O)[C@]3(O)CC` + Cc1cnc(CNC(=O)c2c(=O)c3ccc(N4CCCN(C)CC4)nc3n3c2sc2ccccc23)cn1 the IC50 (second compound 0.0316 µM) was under 0.999 nM, the IC50 (second compound 0.1 µM) was under 0.999 nM and the IC50 (second compound 0.316 µM) was under 0.999 nM. The IC50 (second compound 1 µM) was under 0.999 nM, the IC50 (second compound 3.16 µM) was under 0.999 nM and the IC50 (second compound 10 µM) was under 0.999 nM. The viability, T/C (second compound 0.0316 µM, first compound 0.000999 µM) was 33.5%, the viability, T/C (second compound 0.0316 µM, first compound 0.00316 µM) was 15.6% and the viability, T/C (second compound 0.0316 µM, first compound 0.00999 µM) was 15.1%. The viability, T/C [1] was 13.5%, the viability, T/C (second compound 0.0316 µM, first compound 0.0999 µM) was 5.18% and the viability, T/C [3] was 0.45%. The viability, T/C (second compound 0.1 µM, first compound 0.000999 µM) was 26.9%, the viability, T/C (second compound 0.1 µM, first compound 0.00316 µM) was 14.8% and the viability, T/C (second compound 0.1 µM, first compound 0.00999 µM) was 15.6%. For the same compound, the viability, T/C [7] was 15.2%, the viability, T/C (second compound 0.1 µM, first compound 0.0999 µM) was 5.86% and the viability, T/C [9] was 0.41%. The viability, T/C (second compound 0.316 µM, first compound 0.000999 µM) was 26.3%, the viability, T/C (second compound 0.316 µM, first compound 0.00316 µM) was 17.1% and the viability, T/C (second compound 0.316 µM, first compound 0.00999 µM) was 14.8%. The viability, T/C [13] was 11.9%, the viability, T/C (second compound 0.316 µM, first compound 0.0999 µM) was 4.76% and the viability, T/C [15] was 0.14%. The viability, T/C (second compound 1 µM, first compound 0.000999 µM) was 22%, the viability, T/C (second compound 1 µM, first compound 0.00316 µM) was 15.4% and the viability, T/C (second compound 1 µM, first compound 0.00999 µM) was 14.2%. It also gave a viability, T/C [19] of 10.1%, a viability, T/C (second compound 1 µM, first compound 0.0999 µM) of 4.05% and a viability, T/C [21] of 0.08%. It also gave a viability, T/C (second compound 3.16 µM, first compound 0.000999 µM) of 19.4%, a viability, T/C (second compound 3.16 µM, first compound 0.00316 µM) of 15.9% and a viability, T/C (second compound 3.16 µM, first compound 0.00999 µM) of 14.4%. The viability, T/C [25] was 9.47%, the viability, T/C (second compound 3.16 µM, first compound 0.0999 µM) was 0.08% and the viability, T/C [27] was 0.1%. The viability, T/C (second compound 10 µM, first compound 0.000999 µM) was 18.4%, the viability, T/C (second compound 10 µM, first compound 0.00316 µM) was 16% and the viability, T/C (second compound 10 µM, first compound 0.00999 µM) was 14.6%. For the same compound, the viability, T/C [31] was 7.32%, the viability, T/C (second compound 10 µM, first compound 0.0999 µM) was 0.15% and the viability, T/C [33] was 0.15%.
